Consider 8 molecules from ChEMBL document CHEMBL5370637, “Receptor Interacting Ser/Thr-Protein Kinase 2 as a New Therapeutic Target” (J Med Chem, 2023).

As a reminder, the IC50 is the concentration needed to halve the response being measured. A word on the EC50: it is the concentration giving half of the maximal effect. A higher EC50 goes with weaker potency.

Experiment [1] deals with T1, Receptor-interacting serine/threonine-protein kinase 2 (Homo sapiens, UniProt O43353). Nature of the experiment: Inhibition of recombinant RIPK2 (unknown origin) expressed in insect cells using RBER-CHKtide as substrate assessed as inhibition of tyrosine autophosphorylation preincubated with compound for 15 mins followed by substrate addition and measured after 30 mins. Set-up: species or system Insect cell.

The nature of experiment [2]: Inhibition of RIPK (unknown origin) by KINOMEscan assay. Set-up: species or system Homo sapiens.
In experiment [3] the target is T1, Receptor-interacting serine/threonine-protein kinase 2. Nature of the experiment: Inhibition of recombinant RIPK2 (unknown origin) using CRRKSLVGTPYWMAPE peptide as substrate assessed as inhibition of autophosphorylation incubated for 90 mins in presence of ATP by Transcreener ADP FP assay. Also on record: species or system Insect cell.
In experiment [4] the target is Epidermal growth factor receptor (Homo sapiens, UniProt P00533). The experiment in a line: Inhibition of EGFR (unknown origin) by KINOMEscan assay.
A further experiment has as its target MAP kinase p38 (Homo sapiens, UniProt O15264+Q15759+Q16539+P53778). Nature of the experiment: Inhibition of p38 (unknown origin) by KINOMEscan assay. The experiment is classed as protein assay.
Experiment [5] deals with T1, Receptor-interacting serine/threonine-protein kinase 2. The experiment in a line: Inhibition of human RIPK2 assessed as inhibition of autophosphorylation incubated for 45 to 60 mins in presence of 32P-gamma-ATP by immunoprecipitation analysis.
Experiment [6] can be described thus: Induction of apoptosis in human GBM1 cells incubated for 48 hrs by immunofluorescent analysis. In kind it is functional, cell-based. The conditions noted are these: GBM1, 48 h.
In experiment [7] the target is T1, Receptor-interacting serine/threonine-protein kinase 2. Nature of the experiment: Inhibition of RIPK2 (unknown origin).
Experiment [8] has the same target.

T1 sequence (O43353 whole entry): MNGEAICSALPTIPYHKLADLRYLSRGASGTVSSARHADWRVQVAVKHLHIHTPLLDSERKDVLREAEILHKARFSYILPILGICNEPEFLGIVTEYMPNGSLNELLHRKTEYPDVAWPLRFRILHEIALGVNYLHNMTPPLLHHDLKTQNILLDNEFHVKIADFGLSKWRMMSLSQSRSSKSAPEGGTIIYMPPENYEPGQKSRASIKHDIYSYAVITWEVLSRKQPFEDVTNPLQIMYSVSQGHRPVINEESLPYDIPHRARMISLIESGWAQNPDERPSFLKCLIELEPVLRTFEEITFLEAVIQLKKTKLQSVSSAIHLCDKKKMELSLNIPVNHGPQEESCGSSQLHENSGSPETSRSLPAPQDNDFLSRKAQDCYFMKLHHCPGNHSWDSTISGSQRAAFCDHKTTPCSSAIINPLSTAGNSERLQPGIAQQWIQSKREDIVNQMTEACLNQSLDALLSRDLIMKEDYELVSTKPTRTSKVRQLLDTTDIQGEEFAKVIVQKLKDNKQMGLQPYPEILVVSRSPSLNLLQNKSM
Sequence of Epidermal growth factor receptor (P00533 whole entry): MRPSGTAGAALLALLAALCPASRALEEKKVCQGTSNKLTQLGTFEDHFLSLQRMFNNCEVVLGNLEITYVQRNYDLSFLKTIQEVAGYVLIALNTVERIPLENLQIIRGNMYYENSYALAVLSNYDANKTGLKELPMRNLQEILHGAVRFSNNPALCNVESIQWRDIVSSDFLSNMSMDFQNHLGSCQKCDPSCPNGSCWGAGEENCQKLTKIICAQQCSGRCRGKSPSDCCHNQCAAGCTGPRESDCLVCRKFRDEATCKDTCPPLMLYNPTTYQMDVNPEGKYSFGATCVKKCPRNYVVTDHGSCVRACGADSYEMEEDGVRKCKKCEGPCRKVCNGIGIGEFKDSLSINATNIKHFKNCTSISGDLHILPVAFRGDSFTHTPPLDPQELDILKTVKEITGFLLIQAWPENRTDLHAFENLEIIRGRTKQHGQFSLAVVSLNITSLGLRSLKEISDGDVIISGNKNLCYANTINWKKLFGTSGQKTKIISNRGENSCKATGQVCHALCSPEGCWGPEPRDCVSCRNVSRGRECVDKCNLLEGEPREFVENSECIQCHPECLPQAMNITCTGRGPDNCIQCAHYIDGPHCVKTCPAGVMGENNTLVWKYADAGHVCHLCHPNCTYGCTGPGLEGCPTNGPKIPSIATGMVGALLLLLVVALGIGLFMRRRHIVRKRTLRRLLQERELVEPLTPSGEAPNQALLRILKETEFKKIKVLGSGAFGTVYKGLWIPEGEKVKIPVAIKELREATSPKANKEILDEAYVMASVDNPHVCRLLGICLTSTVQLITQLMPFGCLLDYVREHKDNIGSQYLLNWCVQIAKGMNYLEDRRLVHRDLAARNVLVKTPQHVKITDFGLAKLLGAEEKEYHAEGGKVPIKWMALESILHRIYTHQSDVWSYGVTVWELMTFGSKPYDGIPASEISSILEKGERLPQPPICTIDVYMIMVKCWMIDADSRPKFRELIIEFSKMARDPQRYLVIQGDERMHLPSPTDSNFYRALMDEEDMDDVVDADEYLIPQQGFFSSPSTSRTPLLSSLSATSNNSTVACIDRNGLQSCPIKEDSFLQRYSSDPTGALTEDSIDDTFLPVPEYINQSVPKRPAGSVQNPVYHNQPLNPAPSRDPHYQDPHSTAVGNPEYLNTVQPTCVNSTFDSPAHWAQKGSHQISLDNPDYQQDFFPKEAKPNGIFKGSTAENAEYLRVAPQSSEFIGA

With `Clc1cc2cc(c1)-c1cnn3ccc(nc13)NCCOCCO2`, in experiment [1], the IC50 is 0.0053 µM.
With `Cc1ccc(-c2nn(C(C)(C)CNC(=O)c3ccncc3)c3ncnc(N)c23)cc1`, the IC50 was > 10 µM in experiment [2], 0.134 µM in [3], > 10 µM in experiment [4] and > 10 µM on MAP kinase p38.
For the molecule `Cc1ccc(C(=O)Nc2cccc(-c3nccn3C)c2)cc1NC(=O)c1ccccc1`, the IC50 in experiment [5] was 0.01 µM.
As for `c1cc2cc(n1)NCCOCCNc1ccn3ncc-2c3n1`, the 50% inhibitory concentration (IC50) in experiment [1] came out at 0.0141 µM.
Consider `Cc1n(Cc2ccc(F)cc2)c2c([n+]1Cc1ccccc1)C(=O)c1ccccc1C2=O`, for which the EC50 in experiment [6] was determined as 0.068 µM.
In experiment [7], `N=C(N)NCCC[C@@H]1NC(=O)/C(=C/c2c[nH]c3cc(Br)ccc23)NC1=O` [BARETTIN] registered an IC50 of 8 µM.
In [8], `O=[N+]([O-])c1ccc(-c2nc(-c3ccncc3)c(-c3ccc(F)cc3)[nH]2)cc1` [PD-169316] returned an IC50 of 0.07 µM.
The same measure, in the same setting: the result for `Nc1nccc(-c2c(-c3ccc(F)cc3)ncn2C2CCNCC2)n1` [SB-220025] reads 0.7 µM.
